Laboratory results as given in patent US11140318B2, “Laser endoscope device” (Mie University, priority 2016, dated 2021).
Read-outs that look alike come from different tables or passages of the source.

Assays:
cancer tissue = conditions: mouse, in vivo
Excerpt: (§1) The finding 3 will be described with reference to a case where a cell morphology in a living body is imaged under the multiphoton laser microscope (FV1000MPE manufactured by Olympus Corporation) while changing the focal point position and a plurality of captured images are cut in a predetermined position to create a cross-sectional image (tomographic image). A laboratory mouse was used as the living body.
(§2) As the stain for staining the cell group, both the stain containing curcumin and the stain containing Acid Red (red #106) were used. The staining period was set at 5 minutes. The staining period is the period for which the stain is caused to be in contact with the cell group and the dye of the stain is allowed to penetrate into the cells themselves or the gaps between the cells.

healthy mucosa tissue = conditions: mouse, in vivo
Excerpt: as §1, §2

depth to which the tissue is stained (cancer tissue)	depth to which the tissue is stained (healthy mucosa tissue)	depth to which the tissue is stained (cancer tissue; 5 min)	depth to which the tissue is stained (healthy mucosa tissue; 5 min)	Compound
about 40 μm	about 70 μm	–	–	CCN(CC)c1ccc2c(-c3ccc(S(=O)(=O)[O-])cc3S(=O)(=O)[O-])c3ccc(=[N+](CC)CC)cc-3oc2c1.[Na+] [Acid Red dye, Acid Red]
–	–	about 40 μm	about 20 μm	COc1cc(/C=C/C(=O)CC(=O)/C=C/c2ccc(O)c(OC)c2)ccc1O [curcumin dye, curcumin]
